The values that follow are results of earlier work, collected in patent US10463613B2, “Cromolyn compositions for treatment of chronic cough due to idiopathic pulmonary fibrosis” (Respivant Sciences GmbH, priority 2016, dated 2019).

For this data set the following is noted: in vivo.

Like-named read-outs stand apart in the source and are kept apart here.

With `O=C([O-])c1cc(=O)c2c(OCC(O)COc3cccc4oc(C(=O)O)cc(=O)c34)cccc2o1.[Na+]` [cromolyn sodium, disodium 5,5′-(2-hydroxypropane-1,3-diyl)bis(oxy)bis(4-oxo-4H-chromene-2-carboxylate)], the “Bioavailability of available formulations” value is given as “approximately 1%” and the Oral bioavailability was roughly 1%. For the same compound, the Oral bioavailability entry (listed as cromolyn) was “about 1%”.
